Values of other authors in patent US8940275B2, “Nanoparticles based on gadolinium coordination polymers as highly sensitive T1 MRI contrast agents” (Kent State University, priority 2010, dated 2015).

Conditions: clinical MRI contrast agents; 1.5 T

| SMILES | R1 (typical relaxivity value) [mM⁻¹ s⁻¹] |
| --- | --- |
| CNC[C@H](O)[C@@H](O)[C@H](O)[C@H](O)CO.CNC[C@H](O)[C@@H](O)[C@H](O)[C@H](O)CO.O=C([O-])CN(CCN(CC(=O)[O-])CC(=O)O)CCN(CC(=O)[O-])CC(=O)O.[Gd+3] [Magnevist ®] | 4.3 |
| CNC[C@H](O)[C@@H](O)[C@H](O)[C@H](O)CO.O=C([O-])CN1CCN(CC(=O)[O-])CCN(CC(=O)O)CCN(CC(=O)[O-])CC1.[Gd+3] [Dotarem ®] | 4.2 |
| COCCNC(=O)CN(CCN(CCN(CC(=O)[O-])CC(=O)NCCOC)CC(=O)[O-])CC(=O)[O-].[Gd+3] [OptiMARK] | 5.2 |
| CNC(=O)CN(CCN(CCN(CC(=O)[O-])CC(=O)NC)CC(=O)[O-])CC(=O)[O-].[Gd+3] [Omniscan ®] | 4.6 |
| CC(O)CN1CCN(CC(=O)[O-])CCN(CC(=O)[O-])CCN(CC(=O)[O-])CC1.[Gd+3] (stereo not drawn) [ProHance ®] | 4.4 |
| CCOc1ccc(CC(CN(CCN(CC(=O)[O-])CC(=O)[O-])CC(=O)[O-])N(CC(=O)[O-])CC(=O)[O-])cc1.[Gd+3].[Na+].[Na+] (stereo not drawn) [Primovist] | 7.3 |
| O=C([O-])CN1CCN(CC(=O)[O-])CCN([C@H](CO)[C@H](O)CO)CCN(CC(=O)[O-])CC1.[Gd+3] (racemic) [Gadovist ®] | 5.3 |
| CNC[C@H](O)[C@@H](O)[C@H](O)[C@H](O)CO.CNC[C@H](O)[C@@H](O)[C@H](O)[C@H](O)CO.O=C([O-])CN(CCN(CC(=O)[O-])CC(=O)O)CCN(CC(=O)O)C(COCc1ccccc1)C(=O)[O-].[Gd+3] (stereo not drawn) [MultiHance] | 6.7 |

Conditions: commercial agents, field not given

| SMILES | r1 [mM⁻¹ s⁻¹] |
| --- | --- |
| CNC[C@H](O)[C@@H](O)[C@H](O)[C@H](O)CO.CNC[C@H](O)[C@@H](O)[C@H](O)[C@H](O)CO.O=C([O-])CN(CCN(CC(=O)[O-])CC(=O)O)CCN(CC(=O)[O-])CC(=O)O.[Gd+3] [Magnevist ®] | 4.3 |
